The results in this text go back to patent US20090076067A1, “PHARMACEUTICAL COMPOSITION COMPRISING AZARHODACYANINE COMPOUND AS ACTIVE INGREDIENT” (priority 2005, published 2009).

For series [1], the system named is Plasmodium Falciparum k1 strain. Kind of series: Chloroquine-resistant tropical malaria protozoa proliferation inhibition screening test. Format: cell-based. The settings on record: for Selective toxicity: EC50 rat L6 cells / EC50 Chloroquine-resistant malaria protozoa; for EC50: Plasmodium falciparum, chloroquine-resistant K1 strain, 3H-hypoxanthine uptake, read-out: EC50 P. falciparum K1. As for the experimental part:
In this experiment, Plasmodium Falciparum k1 strain protozoa were used. The medium used in the experiment was filter-sterilized RPMI-1640 medium. To the medium human serum was added to achieve 5% concentration. The protozoa was cultured under condition of O2 concentration 3%, CO2 concentration 4%, N2 concentration 93%, and temperature 37° C.
The cultured malaria infected red blood cells were collected by centrifugation, diluted with non-infected red blood cells, to achieve initial infection rate 0.15%. The hematocrit was 2.5%.
To each well in a 96-well culture plate, 200 μL malaria infected culture was added, and either test solution containing test compound at predefined concentration or DMSO having no test compound was added. Each test solution was prepared in duplicate. After 48 hours culture under 37° C., hypoxanthine labeled with radioactive tritium (^3H) of 0.5 μCi was added to each well. After culturing under same condition for 24 hours, the product was collected on a glass fiber filter and washed. The intensity of radiation was measured by Beta plate liquid scintillation counter (Wallac Inc.), to determine malaria protozoa infection rate in test compound samples and control samples.
Using the malaria protozoa infection rate, the proliferation inhibition rate was calculated according to the following equation to determine 50% proliferation inhibition concentration (EC50).
(§1) Proliferation inhibition rate(%)={1−(b−a)/(c−a)}×100
(§2) a: initial infection rate b: infection rate of test compound solution c: infection rate of the control

Series [2] can be described thus: Rat L6 cell proliferation inhibition test. Format: cell-based. The conditions noted are these: read-out: EC50 cytotoxicity L6. On the procedure: Rat-derived L6 cells (rat skeletal myoblast cell) were used for this test. […] The sample was cultured under CO2 concentration 5% and temperature 37° C. Either the composition of the invention or control was dissolved into DMSO, to prepare test solutions having predefined concentration.
The samples were precultured until logarithmic growth phase was reached. Then the culture was transferred to each well in a 96-well culture plate, and either test solution containing test compound at predefined concentration or DSMO without compound was added. The test solution was duplicated.
The plate was cultured in an incubator for 72 hours, to examine proliferation inhibition activity. The activity was examined as follows. Alamar Blue water solution 10 μL was added to each well, and culture was continued for 2 hours. Next, the culture plate was mounted on a fluorescence microplate reader (Spectramax Gemeni XS; Molecular Devices Corporation, U.S.), and irradiated with excitation wavelength 536 nm to determine fluorescence at 588 nm. The survival rate of L6 cells in the test solution sample and control sample was calculated.
Proliferation inhibition rate(%)={(C−A)/(B−A)}×100
A: Initial cell count B: Cell count in control after 3 days C: Cell count in test solution after 3 days

Series [3] deals with Trypanosoma brucei rhodensiense (STIB 900 strain). Kind of series: African trypanosoma protozoa proliferation inhibition screening test. It is filed as cell-based. The settings on record: for Selective toxicity: EC50 rat L6 cells / EC50 African trypanosoma protozoa; for EC50: Trypanosoma brucei, read-out: EC50 Trypanosoma brucei rhod. As for the experimental part:
In this experiment, bloodstream form trypomastigote of Trypanosoma brucei rhodensiense (STIB 900 strain) was used. The medium used in the experiment was prepared as follows: to filter-sterilized MEM medium, 25 mM N-2-hydroxyethylpiperazine-2-ethane sulfonate (HEPES), 1 g/L glucose, 1% MEM nonessential amino acid, 0.2 mM 2-mercaptoethanol, 2 mM pyruvic calcium salt, 0.1 mM hypoxanthine, and 15% heat-treated horse serum were added. The protozoa was cultured under atmosphere of CO2 concentration 5% and temperature 37° C.
Either the compound of the invention or a positive control (melarsoprol) was dissolved into dimethylsulfoxide (DMSO) to prepare test solution having predefined concentration. To each well in a 96-well culture plate, medium containing 8×10^3 protozoa, and either test solution containing the test compound at predefined concentration or DMSO without compound was added. Then medium was added to achieve 100 μL. The test solution was duplicated.
The culture plate was cultured in an incubator for 72 hours, and the proliferation inhibition activity was examined. The activity was determined as follows. To each well, 10 μL Alamar blue water solution was added, then the plate was again cultured for 2 hours. Then the culture plate was mounted on a fluorescence microplate reader (Spectramax Gemeni XS; Molecular Devices Corporation, U.S.), and irradiated with 536 nm excitation wavelength to determine fluorescence at 588 nm. The trypanosoma infection rate of the sample containing the test composition and that of the control sample was calculated.
(§3) Using the protozoa infection rate thus obtained, the proliferation inhibition rate was calculated according to the following equation to determine 50% proliferation inhibition concentration (EC50).
as §1
(§4) a: initial infection rate b: infection rate of the test compound solution c: infection rate of the control

The test system of series [4] is Plasmodium berghei NK 65 strain. Kind of series: animal or person. It is filed as in vivo. The text has this:
For a test to evaluate therapeutic effect of the compound, 4-day suppressive test which is commonly used for in vivo test to evaluate activity of anti-malaria compound was used. In this experiment, rodent malaria protozoa (Plasmodium berghei NK 65 strain) were used. The infected blood was collected from 5-weeks age (SPF) ICR strain male mouse which were infected intraperitoneally and successively cultured. From the caudal vein of the infected mouse, blood was collected to calculate infection rate. After confirming that infection rate was adequately elevated (10% to 20% infection), the malaria infected blood was collected from the heart of the mouse. The infection rate and count of the red blood cells (cells/mL) were calculated. The infected red blood cell was diluted with PBS buffer to achieve […] protozoa per 0.2 mL dose. The infected cells were injected to the caudal vein of uninfected mouse (ICR strain, male, 5-weeks age) to cause infection. Five mice were made into one group, and the test compound was administered in predefined concentration. From 2 hours after infection, the compound was administered every 24 hours for straight 4 days.
The compound of the invention to be used in this test was dissolved in saline (Otsuka Pharmaceutical Co., Ltd.) to obtain test solution of predefined concentration. When the compound was not dissolved in saline, it was dissolved in SSV (saline containing 0.5% sodium=carboxymethyl cellulose, 0.5% benzyl alcohol, 0.4% Tween 80) to prepare test solution. For the control group (non-treatment group), only saline (Otsuka) was administered. Positive controls S-1 to S-5 were dissolved in saline (Otsuka) or SSV in predetermined concentration to prepare test solution. When the compound was not dissolved in saline, it was dissolved in SSV. After measuring weight of each mouse, the dose for each mouse was calculated to achieve 5.0 to 40 mg concentration for weight1 kg.
Five mice were made into one group, and the test compound was administered intraperitoneally at predefined concentration. From 2 hours after infection, the compound was administered every 24 hours for straight 4 days. Subsequent to the 24 hours after last treatment, blood was collected from the tail of the mouse to prepare thin layer smear in order to count malaria protozoa infection in the treatment group and the control group under microscope. The mice showing maximum value and minimum value were excluded from the average calculation (average was calculated for three mice), to determine malaria protozoa infection rate (Parasitemia).
Using malaria protozoa infection rate thus calculated, recovery rate obtained from the test compound (suppression) was determined.
Recovery rate: suppression(%)=(b−a)/b×100 a: Protozoa infection rate in the treatment group b: Protozoa infection rate in the control group Mean survival days: MSD(day)=c−d c: Average days from the initial treatment (date of malaria infection) to the date of death for the treatment group (5 mice) d: Average days from the date of malaria infection to the date of death for the non-treatment (control) group (5 mice) […]
Tables 5 to 7 illustrate the recovery rate (%) and survival days (day) of malaria infected mice treated with intraperitoneal injection of the test compound and the control compound at predefined concentration. The meaning of symbols in the table is as follows.

Series [5] concerns Trypanosoma cruzi (Tulahuen C2C4 strain). Kind of series: American trypanosoma protozoa proliferation inhibition screening test. It is filed as cell-based. The conditions noted are these: for Selective toxicity: EC50 rat L6 cells / EC50 American trypanosoma protozoa; for EC50: Trypanosoma cruzi, Tulahuen C2C4 strain in rat L6 cells, 96 hours, CPRG/Nonidet, read-out: EC50 Trypanosoma cruzi. As for the experimental part:
In this experiment, amastigote and trypomastigote of Trypanosoma cruzi (Tulahuen C2C4 strain) infected to rat L6 cells were used. The medium used in the experiment was prepared as follows: to RPMI 1640 medium containing L6 cells, L-glutamine (200 mM) and fetal bovine serum was added to achieve concentration of 1% and 10%, respectively. The culture was conducted under CO2 concentration 5% and temperature 37° C.
Either the compound of the invention or a positive control (benznidazole) was dissolved into DMSO to prepare test solution having predefined concentration. To each well in a 96-well culture plate, medium containing 5×10^3 protozoa was added and precultured for 48 hours. After replacing the medium, either the test solution containing compound of the invention in predefined concentration or DMSO without compound was added. The test solution was duplicated.
The plate was cultured in an incubator for 96 hours, and the proliferation inhibition activity was examined. The activity was determined as follows. To each well, 50 μL CPRG/Nonidet was added, then left for 2 to 6 hours. Then the culture plate was mounted on an absorption microplate reader to determine absorption at 540 nm. The trypanosoma infection rate of the sample containing the test compound and that of the control sample was calculated.
as §3, §1, §4

Series [6] relates to Leishmania donovani (MHOM/ET/67/L82 strain). Kind of series: Leishmania protozoa proliferation inhibition screening test. Format: cell-based. As for the experimental part: In this experiment, Leishmania donovani (MHOM/ET/67/L82 strain) was used. The protozoa were successively cultured in Syrian Golden hamsters to obtain amastigote. The medium used in the experiment was SM medium having heat-treated fetal bovine serum 10% added, and pH prepared to 5.4. The culture was conducted under CO2 concentration 5% and temperature 37° C.
Either the compound of the invention or a positive control (miltefosine) was dissolved into DMSO to prepare test solution having predefined concentration. To each well of a 96-well culture plate, medium containing predetermined number of protozoa was added and the culture was pre-treated. The concentration of amastigote was determined by CASY cell analyze system (Scharfe GMBH Co., Germany). Subsequently, either test solution containing compound of the invention in predefined concentration or DMSO without compound was added. The test solution was duplicated.
The plate was cultured in an incubator for 72 hours, and the proliferation inhibition activity was examined. The activity was determined as follows. To each well, 10 μL Alamar blue aqueous solution was added, then cultured again for 2 hours. Then the culture plate was mounted on a fluorescence microplate reader (Spectramax Gemeni XS; Molecular Devices Corporation, U.S), and irradiated 536 nm excitation wavelength to determine […] at 588 nm. The leishmania infection rate of the sample containing the test compound and that of the control sample was calculated.
as §3, §1, §2

Where [7] appears, read: L6 cells (rat skeletal myoblasts), Table 1, Alamar Blue.
Where [8] appears, read: STIB900, STIB 900 bloodstream form, 72 hours, Alamar blue.

SMILES strings stand for the structures. Where two headings read alike, the source gives them in different places.

With `CCn1c(=O)/c(=C2\C=CC=CN2C)s/c1=C1\S/C(=N\c2sc3cc(Cl)ccc3[n+]2C)N(C(C)C)C1=O` [Compound B-36], the Selective toxicity is listed as 1165 in series [1] and 85 in series [3]. In addition, the EC50 came out at 0.009 µg/mL in series [1] and 0.123 µg/mL in series [3] (setting [8]). For the same compound, the EC50 at 72 h in series [2] (setting [7]) was 10.5 µg/mL. Further, in series [4] (Plasmodium berghei, ip, 96 h, read-out: Recovery Rate (suppression)), the inhibition in vivo at 25 mg/kg/day came out at 95.5%. Besides, the “Survival days (mean survival days, treatment group minus control group)” value in series [4] (dose 25 mg/kg/d intraperitoneally, 4 days) came out at 1.7 days.
As to `CCN1C(=O)/C(=c2\nc3c(s2)=CC=CN3C)S/C1=N\c1scc[n+]1C.[Cl-]` [Compound A-20], the results for the Selective toxicity in series [1], in series [3] and in series [5] were 2211, 256 and 32, respectively. Moreover, the EC50 in series [1] was found to be 0.011 µg/mL; in series [3] (setting [8]), 0.095 µg/mL; in series [5] it was 0.763 µg/mL. In series [2] (setting [7]), the EC50 at 72 h amounted to 24.3 µg/mL.
For `CCN1C(=O)/C(=c2\nc3c(s2)=CC=CN3C)S/C1=N\c1sc2ccccc2[n+]1C.[Cl-]` [Compound A-21], the Selective toxicity in series [1] came out at 3005; in series [3], 207; in series [5], 41; in series [6] (EC50 rat L6 cells / EC50 leishmania protozoa), 18. The EC50 in series [1] was found to be 0.002 µg/mL; in series [3] (setting [8]) it was 0.029 µg/mL; in series [5], 0.145 µg/mL; in series [6] (Leishmania donovani, amastigote, 72 hours, Alamar blue, read-out: EC50 Leishmania donovani), 0.343 µg/mL. In series [2] (setting [7]), the concentration for a half-maximal effect (EC50) at 72 h turned out to be 6.01 µg/mL.
Consider `Nc1nc(N)nc(Nc2ccc([As]3SCC(CO)S3)cc2)n1` (centres unmarked) [Melarsoprol, reference compound], for which the EC50 at 72 h in series [2] (Table 2, rat L6 cells, Alamar Blue) came out at 3.1 µg/mL. In series [3], this compound yielded a Selective toxicity of 1300. In addition, the concentration for a half-maximal effect (EC50) in series [3] (STIB900, 72 h) was determined as 0.0024 µg/mL.

For orientation: EC50 means the concentration at which the effect is half-maximal.
